The Ki is the dissociation constant of the complex between target and ligand, obtained from inhibition or displacement.

In the experiment the target is T1, full length human wildtype Btk (Homo sapiens, UniProt Q06187).
T1 construct: V5 (C); 6xHis (C); made in house; host or cells: Sf9 cells (baculovirus, pFastBac)
Briefly: Biochemical Btk Kinase Assay (Example 901). Conditions: read-out: BTK LC3K (Ki). Here is the method: Formula I compounds were tested by a standard biochemical Btk, Kinase Assay (Example 901). A generalized procedure for a standard biochemical Btk, Kinase Assay that can be used to test Formula I compounds is as follows. A master mix minus Btk enzyme is prepared containing 1× Cell Signaling kinase buffer (25 mM Tris-HCl, pH 7.5, 5 mM beta-glycerophosphate, 2 mM dithiothreitol, 0.1 mM Na3VO4, 10 mM MgCl2), 0.5 μM Promega PTK Biotinylated peptide substrate 2, and 0.01% BSA. A master mix plus Btk enzyme is prepared containing 1× Cell Signaling kinase buffer, 0.5 μM (micromolar) PTK Biotinylated peptide substrate 2, 0.01% BSA, and 100 ng/well (0.06 mU/well) Btk enzyme. Btk enzyme is prepared as follows: full length human wildtype Btk (accession number NM-000061) with a C-terminal V5 and 6×His tag was subcloned into pFastBac® vector (Invitrogen/Life Technologies) for making baculovirus carrying this epitope-tagged Btk. Generation of baculovirus is done based on Invitrogen's instructions detailed in its published protocol “Bac-to-Bac Baculovirus Expression Systems” (Invitrogen/Life Technologies, Cat. Nos. 10359-016 and 10608-016). Passage 3 virus is used to infect Sf9 cells to overexpress the recombinant Btk protein. The Btk protein is then purified to homogeneity using Ni-NTA column. The purity of the final protein preparation is greater than 95% based on the sensitive Sypro-Ruby staining. A solution of 200 μM ATP is prepared in water and adjusted to pH 7.4 with 1N NaOH. A quantity of 1.25 μL (microliter) of compounds in 5% DMSO is transferred to a 96-well 2 area Costar polystyrene plate. Compounds are tested singly and with an 11-point dose-responsive curve (starting concentration is 10 μM; 1:2 dilution). A quantity of 18.75 μL of master mix minus enzyme (as a negative control) and master mix plus enzyme is transferred to appropriate wells in 96-well 2 area costar polystyrene plate. 5 μL of 200 μM ATP is added to that mixture in the 96-well 2 area Costar polystyrene plate for final ATP concentration of 40 μM. The reaction is allowed to incubate for 1 hour at room temperature. The reaction is stopped with Perkin Elmer 1× detection buffer containing 30 mM EDTA, 20 nM SA-APC, and 1 nM PT66 Ab. The plate is read using time-resolved fluorescence with a Perkin Elmer Envision using excitation filter 330 nm, emission filter 665 nm, and 2nd emission filter 615 nm. IC50 values are subsequently calculated. Alternatively, the Lanthascreen assay can be used to evaluate Btk activity through quantification of its phosphorylated peptide product. The FRET (Fluorescence Resonance Energy Transfer) that occurs between the fluorescein on the peptide product and the terbium on the detection antibody decreases with the addition of inhibitors of Btk that reduce the phosphorylation of the peptide. In a final reaction volume of 25 μL (microliters), Btk (h) (0.1 ng/25 μl reaction) is incubated with 50 mM Hepes pH 7.5, 10 mM MgCl2, 2 mM MnCl2, 2 mM DTT, 0.2 mM NaVO4, 0.01% BSA, and 0.4 uM fluorescein poly-GAT. The reaction is initiated by the addition of ATP to 25 μM (micromolar) the Km of ATP. After incubation for 60 minutes at room temperature, the reaction is stopped by the addition of a final concentration of 2 nM Tb-PY20 detection antibody in 60 mM EDTA for 30 minutes at room temperature. Detection is determined on a Perkin Elmer Envision with 340 nm excitation and emission at 495 nm and 520 nm. Exemplary Btk inhibition […] values are in Table 1.

T1 sequence (Q06187 whole entry): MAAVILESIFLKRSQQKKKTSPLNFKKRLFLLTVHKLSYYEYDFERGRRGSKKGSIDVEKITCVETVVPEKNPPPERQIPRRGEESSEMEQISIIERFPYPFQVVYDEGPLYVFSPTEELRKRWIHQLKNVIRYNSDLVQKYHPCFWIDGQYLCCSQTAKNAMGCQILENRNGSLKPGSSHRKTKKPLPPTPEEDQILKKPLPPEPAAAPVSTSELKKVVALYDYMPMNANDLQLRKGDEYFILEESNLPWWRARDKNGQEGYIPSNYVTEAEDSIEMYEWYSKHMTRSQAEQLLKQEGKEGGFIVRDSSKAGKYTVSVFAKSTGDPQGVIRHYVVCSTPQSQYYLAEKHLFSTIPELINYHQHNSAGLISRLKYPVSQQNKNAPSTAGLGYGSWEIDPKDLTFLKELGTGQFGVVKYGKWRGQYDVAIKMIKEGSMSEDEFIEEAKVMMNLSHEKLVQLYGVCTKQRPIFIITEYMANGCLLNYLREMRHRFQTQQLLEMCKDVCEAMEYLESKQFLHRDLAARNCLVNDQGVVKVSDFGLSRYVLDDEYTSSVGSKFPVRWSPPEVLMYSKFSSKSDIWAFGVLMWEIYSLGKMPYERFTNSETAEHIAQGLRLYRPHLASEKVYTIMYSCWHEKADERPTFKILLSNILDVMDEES

As for `CN(C)CCNC(=O)c1cccc(-c2nn(-c3ccnc(-n4ncc5cc(C(C)(C)C)cc(F)c5c4=O)c3CO)cc2C(N)=O)c1` [Example 130, 1-[2-(6-tert-butyl-8-fluoro-1-oxo-phthalazin-2-yl)-3-(hydroxymethyl)-4-pyridyl]-3-[3-[2-(dimethylamino)ethylcarbamoyl]phenyl]pyrazole-4-carboxamide], the inhibition constant (Ki) was 0.0438 µM. For the compound `CN1CCN(c2ccc(-c3nn(-c4ccnc(-n5ncc6cc(C(C)(C)C)cc(F)c6c5=O)c4CO)cc3C(N)=O)cn2)CC1` [Example 135, 1-[2-(6-tert-butyl-8-fluoro-1-oxo-phthalazin-2-yl)-3-(hydroxymethyl)-4-pyridyl]-3-[6-(4-methylpiperazin-1-yl)-3-pyridyl]pyrazole-4-carboxamide], the Ki was determined as 0.0156 µM. With `CC(C)(C)c1cc(F)c2c(=O)n(-c3nccc(-n4cc(C(N)=O)c(-c5cnc6ccccc6c5)n4)c3CO)ncc2c1` [Example 140, 1-[2-(6-tert-butyl-8-fluoro-1-oxo-phthalazin-2-yl)-3-(hydroxymethyl)-4-pyridyl]-3-(3-quinolyl)pyrazole-4-carboxamide], the inhibitory constant (Ki) is above 0.5 µM. With `CC1(C)Cc2cc3n(c2C1)CCN(c1nccc(-n2cc(C(N)=O)cn2)c1CO)C3=O` [Example 113, 1-[2-(7,7-dimethyl-4-oxo-1,2,6,8-tetrahydrocyclopenta[3,4]pyrrolo[3,5-b]pyrazin-3-yl)-3-(hydroxymethyl)-4-pyridyl]pyrazole-4-carboxamide], the inhibitory constant (Ki) came to 0.124 µM. For `CC(C)(C)c1cc(F)c2c(=O)n(-c3nccc(-n4cc(C(N)=O)c(-c5cncnc5)n4)c3CO)ncc2c1` [Example 142, 1-[2-(6-tert-butyl-8-fluoro-1-oxo-phthalazin-2-yl)-3-(hydroxymethyl)-4-pyridyl]-3-pyrimidin-5-yl-pyrazole-4-carboxamide] the value was 0.135 µM. As to `CN1CCN(c2cc(-c3nn(-c4ccnc(-n5ncc6cc(C(C)(C)C)cc(F)c6c5=O)c4CO)cc3C(N)=O)ccn2)CC1` [Example 136, 1-[2-(6-tert-butyl-8-fluoro-1-oxo-phthalazin-2-yl)-3-(hydroxymethyl)-4-pyridyl]-3-[2-(4-methylpiperazin-1-yl)-4-pyridyl]pyrazole-4-carboxamide], the Ki turned out to be 0.0507 µM. In the case of `CC(C)(C)c1cc(F)c2c(=O)n(-c3nccc(-n4cc(C(N)=O)c(-c5ccccc5)n4)c3CO)ncc2c1` [Example 114, 1-[2-(6-tert-butyl-8-fluoro-1-oxo-phthalazin-2-yl)-3-(hydroxymethyl)-4-pyridyl]-3-phenyl-pyrazole-4-carboxamide], the Ki is 0.184 µM. For `CC(C)(C)c1cc(F)c2c(=O)n(-c3nccc(-n4cc(C(N)=O)c(-c5ccncc5)n4)c3CO)ncc2c1` [Example 143, 1-[2-(6-tert-butyl-8-fluoro-1-oxo-phthalazin-2-yl)-3-(hydroxymethyl)-4-pyridyl]-3-(4-pyridyl)pyrazole-4-carboxamide] the value was 0.1 µM; for `CC(=O)Nc1nn(-c2ccnc(N3CCn4c(cc5c4CC(C)(C)C5)C3=O)c2CO)cc1C(N)=O` [Example 124, 3-acetamido-1-[2-(7,7-dimethyl-4-oxo-1,2,6,8-tetrahydrocyclopenta[3,4]pyrrolo[3,5-b]pyrazin-3-yl)-3-(hydroxymethyl)-4-pyridyl]pyrazole-4-carboxamide], 0.0138 µM; for `CC(C)(C)c1cc(F)c2c(=O)n(-c3nccc(-n4cc(C(N)=O)c(-c5ccc(CN)cc5)n4)c3CO)ncc2c1` [Example 133, 3-[4-(aminomethyl)phenyl]-1-[2-(6-tert-butyl-8-fluoro-1-oxo-phthalazin-2-yl)-3-(hydroxymethyl)-4-pyridyl]pyrazole-4-carboxamide], 0.156 µM. The figure for `CC(C)(C)c1cc(F)c2c(=O)n(-c3nccc(-n4cc(C(N)=O)c(-c5cnc6[nH]ccc6c5)n4)c3CO)ncc2c1` [Example 132, 1-[2-(6-tert-butyl-8-fluoro-1-oxo-phthalazin-2-yl)-3-(hydroxymethyl)-4-pyridyl]-3-(1H-pyrrolo[2,3-b]pyridin-5-yl)pyrazole-4-carboxamide] is above 0.5 µM.

With `CC(C)(C)c1cc(F)c2c(=O)n(-c3nccc(-n4cc(C(N)=O)c(-c5cnc(N)cn5)n4)c3CO)ncc2c1` [Example 129, 3-(5-aminopyrazin-2-yl)-1-[2-(6-tert-butyl-8-fluoro-1-oxo-phthalazin-2-yl)-3-(hydroxymethyl)-4-pyridyl]pyrazole-4-carboxamide], the inhibitory constant (Ki) is 0.104 µM. As for `CC(C)Cn1cc(-c2nn(-c3ccnc(-n4ncc5cc(C(C)(C)C)cc(F)c5c4=O)c3CO)cc2C(N)=O)cn1` [Example 134, 1-[2-(6-tert-butyl-8-fluoro-1-oxo-phthalazin-2-yl)-3-(hydroxymethyl)-4-pyridyl]-3-(1-isobutylpyrazol-4-yl)pyrazole-4-carboxamide], the inhibition constant (Ki) stood at 0.0269 µM. As to `CC(C)(C)c1cc(F)c2c(=O)n(-c3nccc(-n4cc(C(N)=O)c(-c5ccc(CO)cc5)n4)c3CO)ncc2c1` [Example 141, 1-[2-(6-tert-butyl-8-fluoro-1-oxo-phthalazin-2-yl)-3-(hydroxymethyl)-4-pyridyl]-3-[4-(hydroxymethyl)phenyl]pyrazole-4-carboxamide], the Ki was 0.155 µM. Consider `CCCC(=O)Nc1nn(-c2ccnc(N3CCn4c(cc5c4CC(C)(C)C5)C3=O)c2CO)cc1C(N)=O` [Example 128, 3-(butanoylamino)-1-[2-(7,7-dimethyl-4-oxo-1,2,6,8-tetrahydrocyclopenta[3,4]pyrrolo[3,5-b]pyrazin-3-yl)-3-(hydroxymethyl)-4-pyridyl]pyrazole-4-carboxamide], for which the Ki turned out to be 0.0339 µM. In the case of `CC(=O)Nc1ccc(-c2nn(-c3ccnc(-n4ncc5cc(C(C)(C)C)cc(F)c5c4=O)c3CO)cc2C(N)=O)cn1` [Example 137, 3-(6-acetamido-3-pyridyl)-1-[2-(6-tert-butyl-8-fluoro-1-oxo-phthalazin-2-yl)-3-(hydroxymethyl)-4-pyridyl]pyrazole-4-carboxamide], the inhibition constant (Ki) was 0.115 µM.

As for `CN1CCN(C(=O)c2ccc(-c3nn(-c4ccnc(-n5ncc6cc(C(C)(C)C)cc(F)c6c5=O)c4CO)cc3C(N)=O)cc2)CC1` [Example 131, 1-[2-(6-tert-butyl-8-fluoro-1-oxo-phthalazin-2-yl)-3-(hydroxymethyl)-4-pyridyl]-3-[4-(4-methylpiperazine-1-carbonyl)phenyl]pyrazole-4-carboxamide], the Ki was determined as 0.143 µM. `CC(C)(C)c1cc(F)c2c(=O)n(-c3nccc(-n4cc(C(N)=O)c(-c5cccnc5)n4)c3CO)ncc2c1` [Example 144, 1-[2-(6-tert-butyl-8-fluoro-1-oxo-phthalazin-2-yl)-3-(hydroxymethyl)-4-pyridyl]-3-(3-pyridyl)pyrazole-4-carboxamide]: the inhibition constant Ki came out at 0.124 µM. Regarding `CC(C)(C)c1cc(F)c2c(=O)n(-c3nccc(-n4cc(C(N)=O)c(-c5ccc(O)nc5)n4)c3CO)ncc2c1` [Example 138, 1-[2-(6-tert-butyl-8-fluoro-1-oxo-phthalazin-2-yl)-3-(hydroxymethyl)-4-pyridyl]-3-(6-hydroxy-3-pyridyl)pyrazole-4-carboxamide], the Ki amounted to 0.0827 µM. Turning to `CC(C)(C)c1cc(F)c2c(=O)n(-c3nccc(-n4cc(C(N)=O)c(-c5cncc(S(C)(=O)=O)c5)n4)c3CO)ncc2c1` [Example 139, 1-[2-(6-tert-butyl-8-fluoro-1-oxo-phthalazin-2-yl)-3-(hydroxymethyl)-4-pyridyl]-3-(5-methylsulfonyl-3-pyridyl)pyrazole-4-carboxamide], the Ki is above 0.5 µM.

Source of the values: patent publication US20190194209A1, “PYRAZOLE CARBOXAMIDE COMPOUNDS AND METHODS OF USE” (Genentech, Inc., priority 2014, published 2019).
